Source: patent US12036281B2 (ONEHEALTHCOMPANY, INC., priority 2019, dated 2024)

Tests used:
[1] = test system: cancer; assay: Treatment of canine cancers with targeted drug, disease progression and overall survival compared to historical controls; type: in vivo; conditions: alone or in combination with other anti-cancer agents
Experimental: (§1) Canine subjects with cancer were treated with Rapamycin alone or in combination with other anti-cancer agents (Tables 3 and 12-26). The subjects were administered Rapamycin orally with a starting dose of 0.1 mg/kg/day and were monitored for disease progression compared to historical controls.
Canine subjects with cancer were treated with Dasatinib alone or in combination with other anti-cancer agents (Tables 4 and 12-26). The subjects were administered Dasatinib orally with a starting dose of 0.5-0.7 mg/kg/day and were monitored for disease progression compared to historical controls.
as §1, with “Vorinostat” for “Rapamycin”, “7” for “3”, “30-60 mg/kg/every other day” for “0.1 mg/kg/day”
as §1, with “Crizotinib” for “Rapamycin”, “(Table 9” for “(Tables 3”, “1 mg/kg/day-2” for “0.1”
as §1, with “Sorafenib” for “Rapamycin”, “10” for “3”, “1 mg/kg/day-3” for “0.1”, “mg/kg/day or 1 mg/kg/day-3 mg/kg/week” for “mg/kg/day”

[2] = Number and type of adverse effects reported in treated canines; type: in vivo; conditions: canine subjects with cancer; for subjects with clinically reported outcomes that experienced adverse effects: diarrhea, vomiting, inappetence, lethargy, skin lesions, liver enzymes, cardiac toxicity, hemorrhagic gastroenteritis monitored, cohorts 192, 94, 162, 275, 89, 83, 9 subjects
Experimental: Canine subjects with cancer were treated with pharmaceutical compositions comprising Rapamycin and were monitored for adverse effects including: diarrhea, vomiting inappetence, lethargy, skin lesions, progressive liver enzyme evaluations, increased cardiac toxicity and hemorrhagic gastroenteritis.
Canine subjects with cancer were treated with pharmaceutical compositions comprising Dasatinib and were monitored for adverse effects including: diarrhea, vomiting inappetence, lethargy, skin lesions, progressive liver enzyme evaluations, increased cardiac toxicity and hemorrhagic gastroenteritis.
Canine subjects with cancer were treated with pharmaceutical compositions comprising Vorinostat and were monitored for adverse effects including: diarrhea, vomiting inappetence, lethargy, skin lesions, progressive liver enzyme evaluations, increased cardiac toxicity and hemorrhagic gastroenteritis.
Canine subjects with cancer were treated with pharmaceutical compositions comprising Crizotinib and were monitored for adverse effects including: diarrhea, vomiting inappetence, lethargy, skin lesions, progressive liver enzyme evaluations, increased cardiac toxicity and hemorrhagic gastroenteritis.
Canine subjects with cancer were treated with pharmaceutical compositions comprising Sorafenib and were monitored for adverse effects including: diarrhea, vomiting inappetence, lethargy, skin lesions, progressive liver enzyme evaluations, increased cardiac toxicity and hemorrhagic gastroenteritis.

Row | Structure (SMILES) | subjects with clinically reported outcomes that experienced adverse effects [2] [%] | further results
1 | Cc1ccc(NC(=O)c2ccc(CN3CCN(C)CC3)cc2)cc1Nc1nccc(-c2cccnc2)n1 [Imatinib] |  | overall survival compared to control subjects ([1]; Imatinib orally, starting dose 10 mg/kg/day): significant improvement
2 | O=C(CCCCCCC(=O)Nc1ccccc1)NO [Vorinostat] | 34 | overall survival compared to control subjects ([1]; Vorinostat orally, starting dose 30-60 mg/kg/every other day): significant improvement
3 | CNC(=O)c1cc(Oc2ccc(NC(=O)Nc3ccc(Cl)c(C(F)(F)F)c3)cc2)ccn1 [Sorafenib] |  | subjects with clinically reported outcomes that experience adverse effects ([2]; result in words): A minority of subjects; overall survival compared to control subjects ([1]; Sorafenib orally, starting dose 1 mg/kg/day-3 mg/kg/day or 1 mg/kg/day-3 mg/kg/week): significant improvement
4 | CC(=O)Nc1cccc(-n2c(=O)n(C3CC3)c(=O)c3c(Nc4ccc(I)cc4F)n(C)c(=O)c(C)c32)c1 [Trametinib] | 24 | 
5 | Cc1nc(Nc2ncc(C(=O)Nc3c(C)cccc3Cl)s2)cc(N2CCN(CCO)CC2)n1 [Dasatinib] | 31 | 
6 | CS(=O)(=O)CCNCc1ccc(-c2ccc3ncnc(Nc4ccc(OCc5cccc(F)c5)c(Cl)c4)c3c2)o1 [Lapatinib] | 22 | overall survival compared to control subjects ([1]; Lapatinib orally, starting dose 5-10 mg/kg/day): significant improvement
7 | C[C@@H](Oc1cc(-c2cnn(C3CCNCC3)c2)cnc1N)c1c(Cl)ccc(F)c1Cl [Crizotinib] | 43 | overall survival compared to control subjects ([1]; Crizotinib orally, starting dose 1 mg/kg/day-2 mg/kg/day): significant improvement
8 | CO[C@H]1C[C@@H]2CC[C@@H](C)[C@@](O)(O2)C(=O)C(=O)N2CCCC[C@H]2C(=O)O[C@H]([C@H](C)C[C@@H]2CC[C@@H](O)[C@H](OC)C2)CC(=O)[C@H](C)/C=C(\C)[C@@H](O)[C@@H](OC)C(=O)[C@H](C)C[C@H](C)/C=C/C=C/C=C/1C [Rapamycin] | 21 | 
